Assay results: patent EP0583821A1, “Atriopeptins, guanylate cyclase activators, and phosphodiesterase inhibitors as treatment for glaucoma, hydrocephalus and cerebral edema (cranial fluid volume dysfunction)” (THE GENERAL HOSPITAL CORPORATION, priority 1987, dated 1988)

Legend:
[1] = test system: choroid epithelial cells; assay: Intracellular cyclic GMP content of isolated choroid epithelial cells; format: cell-based, rabbit; details: 5 minutes incubation; 1 uM rANP; PDE inhibitors theophylline (10 mM) and IBMX (0.5 mM)
Protocol: The effect of rANP on membrane-bound guanylate cyclase and adenylate cyclase activity in various brain-barrier tissues and tissue fractions from rabbit was compared with its activity in cerebrum and cerebellum. Guanylate cyclase was measured as the rate of cyclic GMP formation by modifications of the technique of Waldman et al., supra, incorporated herein by reference. Briefly, tissues were homogenized (10 mg wet weight per milliliter) in 50 mM tris-HCl, pH 8.0, 1 mM EDTA, 1 mM dithiothreitol, and 250 mM sucrose and centrifuged at 100,000g to obtain a P1 pellet. […] Cyclic GMP formed was subsequently measured by radioimmunoassay as described in example 6, infra. […] Adenylate cyclase activity in P1 fractions was measured according to the method described by Nathanson, et al., Science; 204:843 (1979); Mol. Pharmacol. 18:199 (1980), see Figure 1C . […]
Purified secretory epithelial cells were isolated and maintained in tissue culture medium in the absence of any hormones. […] More diffuse staining was found only in epithelium and not in vascular or stromal components of choroid epithelial cells as determined by fluorescein optics. […]
For one experiment, the mean ± range is shown for duplicate determinations, each assayed in triplicate for cyclic GMP content. […] After the cells were incubated for 5 minutes, they were killed and their cyclic GMP content was determined. […]

[2] = test system: guanylate cyclase; assay: Guanylate cyclase in membrane fractions of cerebral cortex; format: biochemical; details: rabbit or pig cerebral cortex membrane fractions
Protocol: The effect of rANP on membrane-bound guanylate cyclase and adenylate cyclase activity in various brain-barrier tissues and tissue fractions from rabbit was compared with its activity in cerebrum and cerebellum. Guanylate cyclase was measured as the rate of cyclic GMP formation by modifications of the technique of Waldman et al., supra, incorporated herein by reference. Briefly, tissues were homogenized (10 mg wet weight per milliliter) in 50 mM tris-HCl, pH 8.0, 1 mM EDTA, 1 mM dithiothreitol, and 250 mM sucrose and centrifuged at 100,000g to obtain a P1 pellet. Reaction tubes contained (in 0.3 ml), 50 mM tris, pH 7.6, 6 mM MnCl₂, 0.5 mM 3-isobutyl, 1-methylxanthine (IBMX), 10 mM theophylline, 3 mM GTP, hormone (in 0.03 ml containing 2.5 mM ascorbic acid and 0.1% bovine serum albumin), and 0.06 ml of P1 fraction (40 to 60 ug of protein). The reaction (4 minutes at 30°C) was started by addition of GTP and terminated by addition of 0.3 ml of 150 mM sodium acetate (pH 4.0) and boiling for 3 minutes. Cyclic GMP formed was subsequently measured by radioimmunoassay as described in example 6, infra. Under these conditions, guanylate cyclase activity was linear with time and tissue concentration. Adenylate cyclase activity in P1 fractions was measured according to the method described by Nathanson, et al., Science; 204:843 (1979); Mol. Pharmacol. 18:199 (1980), see Figure 1C . […] Neurosci. […]

Q: For “Ser-Leu-Arg-Arg-atriopeptin III (APIII) [rANP 1-28]”, which “increase in cyclic GMP content” value [1] is on record?
A: more than an eightfold increase

Q: What about the “stimulation of guanylate cyclase activity” value [2] of the same substance?
A: no stimulation
